Literature values in patent publication US9820973B2, “Pharmaceutical formulation comprising losartan potassium and chlorthalidone” (Merck Sharp & Dohme B.V., priority 2013, dated 2017).

In the case of NS(=O)(=O)c1cc(C2(O)NC(=O)c3ccccc32)ccc1Cl (racemic) [chlorthalidone, (RS)-2-chloro-5-(1-hydroxy-3-oxo-2,3-dihydro-1H-isoindol-1-yl)benzene-1-sulfonamide], the “Solubility (in words)” value (across the physiologic pH range) is listed as “low solubility”.

For CCCCc1nc(Cl)c(CO)n1Cc1ccc(-c2ccccc2-c2nnn[nH]2)cc1 [Losartan potassium, 2-butyl-4-chloro-1-[p-(o-1H-tetrazol-5-ylphenyl)-benzyl]imidazole-5-methanol], the “Behaviour of the salt (in words)” value (acidic media) is given as “the salt dissociates and the losartan free acid precipitates as a gel layer” and the “Dissolution of the salt (in words)” value (neutral to basic media) is given as “readily dissolves”.
